Ends that are not written are not given here.
B1: HC gp-39 peptide 17 (residues 118-133) (peptide)
peptide: TFIKSVPPFLRTHGFD
B2: HC gp-39 peptide 30 (residues 196-211) (peptide)
peptide: QHLDFISIMTYDFHGA
B3: HC gp-39 peptide 37 (residues 238-253) (peptide)
peptide: DYAVGYMLRLGAPASK
B4: HC gp-39 peptide 1 (residues 22-37) (peptide)
peptide: YKLVCYYTSWSQYREG
B5: HC gp-39 peptide 54 (residues 340-355) (peptide)
peptide: YLKDRQLAGAMVWALD

Key:
[1] = tested on: PBMC from RA patients and healthy controls carrying the DR4 (DRB1*0401) specificity; experiment: Proliferative responses of blood mononuclear cells, RA patients and healthy donors taken together; format: cell-based, human; conditions: for Responses to the individual peptides (PBMC proliferation), identifying T-cell epitopes: any donor
Protocol: (§1) In order to identify T-cell epitopes within HC gp-39, 59 peptides of 16 AA in length, overlapping by 10 AA were tested for their capacity to induce a proliferative response in PBMC from RA patients and healthy controls carrying the DR4 (DRB1*0401) specificity (Table 1).
(§2) PBMC obtained from heparinized venous peripheral blood were isolated by standard centrifugation on a Ficoll-Paque gradient. Cells were cultured in four-fold at a concentration of 1,5×10^5 cells/well in medium supplemented with 10% heat-inactivated, autologous plasma, L-glutamine, 2-ME and antibiotics in flatbottomed microtiter plates. Cells were incubated in medium alone or in the presence of phytohaemagglutinin (PHA) (2:5 μg/ml) to assert cell viability, or in the presence of 10 or 100 μg/ml of the HC gp-39-derived peptides. In several cases, sets of 2 or 3 sequential peptides were tested due to limited PBMC numbers of individual donors. Cultures were incubated in a total volume of 210 μl for 7 days at […] in a humidified atmosphere of 5% CO2. Cultures were pulsed during the last 18 hours with 0.25 μCi ^3H-thymidine ([^3H]TdR). Cells were harvested on glassfiber filters and [^3H] TdR incorporation was measured by gas scintillation (Packard Matrix 96 βcounter). Only peptides inducing a proliferative response at both 10 and 100 μg/ml were considered to contain a T-cell epitope. Responses were defined positive if stimulation index values (SI, antigen-specific counts per 5 min (cp5 m)/background cp5 m) exceeded or equaled 2.
(§3) T-cell reactivity to HC gp-39-derived peptide as analyzed by measuring the PBMC proliferative response in DR4 (DRB1*0401)-positive RA patients and healthy donors. Proliferative responses were tested in autologous plasma. In Table IIIA and IIIB the results of 7 experiments are presented showing the responses of RA patients (Table IIIA) and the responses of healthy donors (Table IIIB) to 59 overlapping sequences derived from HC gp-39.

[2] = target: T1, DR4 (DRB1*0401) molecules (Homo sapiens, UniProt P01903+P01911, A100K/A169T/F76Y/I96L/K127E/L162R/M171V/N62H/P40V/Q125Y/R42H/S133A/S149N/S66Y/V115G/V209L/W38E); experiment: Peptide HLA-DR binding assay (semi-quantitative competition binding); conditions: for IC50: competition with biotinylated marker peptide HA 309 Y→F, pH5.0, 44 hr RT
T1 construct: molecules were purified from the homozygous EBV-transformed human B lymphoblastoid cell lines Huly138IC2 and BM92 using the mAb; endogenous in cells
Protocol: DR4 (DRB1*0401) and DR4 (DRB1*0404) molecules were purified from the homozygous EBV-transformed human B lymphoblastoid cell lines Huly138IC2 and BM92 using the mAb t243, directed against a monomorphic determinant on the DR-complex (Lampson, L. A and R. Levy (1980), J. Immunol. 125:293 299).
The peptide binding studies were performed using a semi-quantitative competition binding assay (Joosten et al 1994, Int. Immunol. 6, 751). Briefly, purified HLA-DR molecules (30 nM DR4(DRB1*0401) or 15 nM DR4 (DRB1*0404) were incubated at pH5.0 with 50 nM biotinylated marker peptide (HA 309y→F) and a concentration range of competitor peptide in a final volume of 25 μl binding buffer (PBS containing 0.01% […], 0.05% NP-40, 5% DMSO, 1 mM AEBSF, 1 mM N-ethyl maleimide, 8 mM EDTA and 10 μm pepstatin A). After 44 hr of incubation at RT, HLA DR bound marker peptide was separated from free marker peptide using a 96 well vacuum dotblot apparatus (Hybri. dot, BRL) and a nitrocellulose membrane (Hybond ECL, Amersham, UK). The nitrocellulose filters were blocked with 0.5% DNA blocking reagent (Boehringer) in 0.1 M maleic acid, 150 mM NaCl, pH7.5.
After 0.5-1 hr, the filters were washed in PBS, 0.05% Tween 20 (Sigma) and incubated with Strepcavidin-HRPO (Southern Biotechnology) in a 1:10.000 dilution. Biotinylated peptides were detected by enhanced chemiluminescence using a Western Blot ECL kit (Amersham). Exposure of the preflashed films (Hyperfilm-ECL, Amersham) was for 10 min. The spots were analysed by scanning the films and using Image Quant/Excel software for analysis.
The affinity of a given peptide for binding DRB1*0401-encoded molecules was related to competition with the marker peptide. This relative binding affinity was defined as the peptide concentration at which the signal was reduced to 50% (IC50).

[3] = tested on: PBMC from RA patients carrying the DR4 (DRB1*0401) specificity; experiment: Peptide-induced proliferative responses of PBMC from RA patients; format: cell-based, human; conditions: for Peptide-induced proliferative response of PBMC, RA 272: RA patient 272, 0401, R; for Peptide-induced proliferative response of PBMC, RA 276: RA patient 276, 0401, R; for Peptide-induced proliferative response of PBMC, RA 286: RA patient 286, 0401, R
Protocol: This study included 7 DR4(DRB1*0401)-positive patients diagnosed as suffering from RA according to the ARA criteria (Arnett et al., (1988), Arthritis Rheum. 31, 315). Peripheral blood samples were obtained with informed consent. There were five women and two men aged 46-79 years. Their duration of disease ranged from over 10 to over 30 years. Three out of 7 patients had at least 3 swollen joints. […] All patients were on medication: Four patients were treated with prednisone, three patients received anti-rheumatic agents and 4 patients were treated with NSAID's as well.
as §1, §2, §3

[4] = tested on: PBMC from healthy donors carrying the DR4 (DRB1*0401) specificity; experiment: Peptide-induced proliferative responses of PBMC from healthy donors; format: cell-based, human; conditions: for Peptide-induced proliferative response of PBMC, HD 230: healthy donor 230, 0401, R
Protocol: Peripheral blood samples from 5 healthy donors carrying the DR4(DRB1*0401) specificity were obtained with informed consent and included in this study as a control.
as §1, §2, §3

[5] = target: T2, DR4 (DRB1*0401) molecules purified from the homozygous EBV-transformed human B lymphoblastoid cell line … (human, UniProt P01903 26-254); experiment: competition binding assay on purified DR4(DRB1*0401)
T2 construct: mature; That form is inferred from purification of the native complex

[6] = target: T2, DR4 (DRB1*0401) molecules purified from …
[7] = 100 and 10 microgram/ml, 7 days, 3H-thymidine incorporation

| Molecule | Responses to the individual peptides (PBMC proliferation), identifying T-cell epitopes [1] | Relative affinity of binding to DR4 (DRB1*0401), in words [2] | IC50 ([2]; Table IIIA) [nM] | IC50 ([2]; Table IIIB) [nM] | Peptide-induced proliferative response of PBMC, RA 272 [3, 7] | Response of PBMC from RA patient 272 to individual peptides, in words [3] | Presence of T-cell epitopes confirmed by PBMC of healthy donor 230 [4] | Peptide-induced proliferative response of PBMC, HD 230 [4, 7] | binding result [5] | IC50 [6] [nM] | other results |
| --- | --- | --- | --- | --- | --- | --- | --- | --- | --- | --- | --- |
| QHLDFISIMTYDFHGA [peptide 30, QHLDFISIMTYDFHGA] | observed in one or more donors | relatively high affinity | < 1000 | < 1000 | pos (positive responses to both 100 and 10 microgram/ml of peptide or sets of peptides (SI≧2 were regarded positive)) | appeared to respond | confirmed the presence of T-cell epitopes | pos (positive responses to both 100 and 10 microgram/ml of peptide or sets of peptides (SI>2 were regarded positive)) | – | – | Peptides or sets of peptides most frequently recognized ([1]; overall, all donors): most frequently recognized; Peptide-induced proliferative response of PBMC, RA 262 ([3]; RA patient 262, 0401, R, 100 and 10 microgram/ml, 7 days, 3H-thymidine incorporation): pos (positive responses to both 100 and 10 microgram/ml of peptide or sets of peptides (SI≧2 were regarded positive)); Peptide-induced proliferative response of PBMC, RA 276 [3, 7]: pos (positive responses to both 100 and 10 microgram/ml of peptide or sets of peptides (SI≧2 were regarded positive)); Peptide-induced proliferative response of PBMC, RA 286 [3, 7]: pos (positive responses to both 100 and 10 microgram/ml of peptide or sets of peptides (SI≧2 were regarded positive)) |
| THIIYSFANISNDHID [compound 6, THIIYSFANISNDHID] | observed in one or more donors | relatively high affinity | < 1000 | < 1000 | pos (positive responses to both 100 and 10 microgram/ml of peptide or sets of peptides (SI≧2 were regarded positive)) | appeared to respond | confirmed the presence of T-cell epitopes | pos (positive responses to both 100 and 10 microgram/ml of peptide or sets of peptides (SI>2 were regarded positive)) | – | – | Peptide-induced proliferative response of PBMC, RA 276 [3, 7]: pos (positive responses to both 100 and 10 microgram/ml of peptide or sets of peptides (SI≧2 were regarded positive)); Peptide-induced proliferative response of PBMC, RA 286 [3, 7]: pos (positive responses to both 100 and 10 microgram/ml of peptide or sets of peptides (SI≧2 were regarded positive)) |
| YKLVCYYTSWSQYREG [peptide 1, YKLVCYYTSWSQYREG] | observed in one or more donors | relatively high affinity | < 1000 | < 1000 | pos (positive responses to both 100 and 10 microgram/ml of peptide or sets of peptides (SI≧2 were regarded positive)) | appeared to respond | confirmed the presence of T-cell epitopes | pos (positive responses to both 100 and 10 microgram/ml of peptide or sets of peptides (SI>2 were regarded positive)) | – | – | – |
| LDRFLCTHIIYSFANI [compound 5, LDRFLCTHIIYSFANI] | observed in one or more donors | relatively high affinity | < 1000 | < 1000 | pos (positive responses to both 100 and 10 microgram/ml of peptide or sets of peptides (SI≧2 were regarded positive)) | appeared to respond | confirmed the presence of T-cell epitopes | pos (positive responses to both 100 and 10 microgram/ml of peptide or sets of peptides (SI>2 were regarded positive)) | – | – | Peptide-induced proliferative response of PBMC, RA 259 ([3]; RA patient 259, 0401, R, 100 and 10 microgram/ml, 7 days, 3H-thymidine incorporation): pos (positive responses to both 100 and 10 microgram/ml of peptide or sets of peptides (SI≧2 were regarded positive)) |
| DYAVGYMLRLGAPASK [compound 37, DYAVGYMLRLGAPASK] | observed in one or more donors | relatively high affinity | < 1000 | < 1000 | pos (positive responses to both 100 and 10 microgram/ml of peptide or sets of peptides (SI≧2 were regarded positive)) | appeared to respond | confirmed the presence of T-cell epitopes | pos (positive responses to both 100 and 10 microgram/ml of peptide or sets of peptides (SI>2 were regarded positive)) | – | – | Peptide-induced proliferative response of PBMC, HD 155 ([4]; healthy donor 155, 0401, R, 100 and 10 microgram/ml, 7 days, 3H-thymidine incorporation): pos (positive responses to both 100 and 10 microgram/ml of peptide or sets of peptides (SI>2 were regarded positive)); Peptide-induced proliferative response of PBMC, HD 235 ([4]; healthy donor 235, 0401, R, 100 and 10 microgram/ml, 7 days, 3H-thymidine incorporation): pos (positive responses to both 100 and 10 microgram/ml of peptide or sets of peptides (SI>2 were regarded positive)) |
| B1 | – | – | – | – | – | – | – | – | binds | 1000 to 10000 | – |
| B2 | – | – | – | – | – | – | – | – | binds | < 1000 | – |
| B3 | – | – | – | – | – | – | – | – | binds | < 1000 | – |
| B4 | – | – | – | – | – | – | – | – | binds | < 1000 | – |
| B5 | – | – | – | – | – | – | – | – | binds | < 1000 | – |

— patent US6881824B1, “Peptides suitable for use in antigen specific immunosuppressive therapy” (Akzo Nobel N.V., priority 1996, dated 2005)
